# Reference: patent publication US20120184532A1 (priority 2009, published 2012)
# “And” between values parts separate entries of the source, which are not always exact repeats. Equal entries are not always repeated. “Also recorded” adds a separate entry of the source. Structures can show the parent of a compound that is named as a salt.
# Key:
# [1] = molecular target: T1, Acetylcholinesterase (h), human recombinant (HEK-293 cells) (Homo sapiens, UniProt P22303); assay: In vitro human acetylcholine esterase inhibition; format: biochemical; conditions: in contrast to galantamine
# T1 construct: host or cells: HEK-293 cells
# T1 sequence (P22303 32-614): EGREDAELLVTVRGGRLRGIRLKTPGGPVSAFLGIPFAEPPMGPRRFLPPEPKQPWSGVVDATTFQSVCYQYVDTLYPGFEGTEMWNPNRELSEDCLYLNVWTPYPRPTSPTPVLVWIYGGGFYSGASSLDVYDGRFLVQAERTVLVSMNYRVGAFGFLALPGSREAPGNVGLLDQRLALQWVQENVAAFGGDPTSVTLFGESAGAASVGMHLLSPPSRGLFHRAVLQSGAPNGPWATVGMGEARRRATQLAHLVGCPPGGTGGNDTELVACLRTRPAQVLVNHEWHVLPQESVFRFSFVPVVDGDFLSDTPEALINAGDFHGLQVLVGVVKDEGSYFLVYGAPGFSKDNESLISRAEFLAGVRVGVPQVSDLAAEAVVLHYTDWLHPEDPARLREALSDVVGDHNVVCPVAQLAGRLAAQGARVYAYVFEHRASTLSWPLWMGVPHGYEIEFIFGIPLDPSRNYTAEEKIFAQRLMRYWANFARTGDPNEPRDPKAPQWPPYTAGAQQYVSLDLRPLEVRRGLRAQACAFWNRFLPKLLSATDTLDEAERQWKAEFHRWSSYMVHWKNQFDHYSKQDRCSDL
# [2] = tested on: Sprague Dawley rat; assay: PICA behavior (kaolin consumption) as surrogate for emesis in the rat; format: in vivo; conditions: for rat kaolin consumption (g) over 24 h post-dose: single subcutaneous dose 3.5 mg base/kg
# Description: This is a well established model for this purpose in the rat (Takeda N et al (1993) 45 817-21).
# Once determined, a comparison was made of the effects of these doses on kaolin consumption over a 0-96 hour period in 24 h increments.
# In detail groups of 10 male Sprague Dawley rats were habituated to kaolin for 3 days, then singly housed in grid-bottomed cages and habituated for a further 2 days prior to dosing. On the day of drug administration, the animals were food-deprived for 1 h prior to dosing. […] Access to a weighed quantity of food and kaolin was then restored. Food and kaolin was weighed 24, 48, 72 and 96 h after dosing.
# [3] = tested on: rabbit stomach circular smooth muscle; assay: Ex vivo rabbit stomach circular smooth muscle, electrical field stimulation; conditions: rabbit stomach strips, EFS, 100 nM to 100 μM
# [4] = tested on: human stomach circular smooth muscle; assay: Ex vivo human stomach circular smooth muscle, electrical field stimulation; conditions: human stomach strips, EFS, 100 nM to 100 μM
# [5] = tested on: ferret; assay: Emetic activity (retching and vomiting) in the ferret; conditions: for Time (min) to onset of: Retching / Time (min) to onset of: Vomiting / Total number of individual incidences of: Retching / Total number of individual incidences of: Vomiting: 2 hr. observation; for animals dosed that retched / animals dosed that vomited: 20 mg (free base)/kg or similar molar dose, oral
# [6] = tested on: rat; assay: Comparative acute toxicity (behavior) of sc and po galantamine in the rat; format: in vivo; conditions: individual rats
# [7] = 40 mg/kg as base p.o., individual animals
# [8] = 20 mg/kg p.o., individual animals, listed as Galantamine HBr, hydrobromide, 20 mg/kg
# [9] = 20 mg/kg p.o., individual animals, listed as Galantamine valine ester tartrate, 20 mg/kg
compound,measurement,setting,value
COc1ccc2c3c1O[C@H]1C[C@@H](OC(=O)CCCC(=O)Nc4ccc(C(=O)O)cc4)C=C[C@@]31CCN(C)C2 [Galantamine [glutaryl-PABA] ester],inhibitory actions toward human acetylcholine esterase (in words),[1],significantly less inhibitory actions
COc1ccc2c3c1O[C@H]1C[C@@H](OC(=O)CCC(=O)N[C@H](C(=O)O)C(C)C)C=C[C@@]31CCN(C)C2 [Galantamine succinyl valine ester],Cumulative mean ± SD kaolin consumption,"[2]; 11.75 mg base/kg po (galantamine free base content), 24 h",0.14 ± 0.20 g
same,Cumulative mean ± SD kaolin consumption,"[2]; 11.75 mg base/kg po (galantamine free base content), 48 h",0.29 ± 0.24 g
same,Cumulative mean ± SD kaolin consumption,"[2]; 11.75 mg base/kg po (galantamine free base content), 72 h",0.48 ± 0.27 g
same,Cumulative mean ± SD kaolin consumption,"[2]; 11.75 mg base/kg po (galantamine free base content), 96 h",0.57 ± 0.40 g
same,Cumulative mean ± SD kaolin consumption,"[2]; 23.5 mg base/kg po (galantamine free base content), 24 h",0.31 ± 0.53 g
same,Cumulative mean ± SD kaolin consumption,"[2]; 23.5 mg base/kg po (galantamine free base content), 48 h",0.61 ± 0.69 g
same,Cumulative mean ± SD kaolin consumption,"[2]; 23.5 mg base/kg po (galantamine free base content), 72 h",0.95 ± 0.96 g
same,Cumulative mean ± SD kaolin consumption,"[2]; 23.5 mg base/kg po (galantamine free base content), 96 h",1.25 ± 1.31 g
same,Cumulative mean ± SD kaolin consumption,"[2]; 47 mg base/kg po (galantamine free base content), 24 h",0.15 ± 0.18 g
same,Cumulative mean ± SD kaolin consumption,"[2]; 47 mg base/kg po (galantamine free base content), 48 h",0.40 ± 0.18 g
same,Cumulative mean ± SD kaolin consumption,"[2]; 47 mg base/kg po (galantamine free base content), 72 h",0.63 ± 0.28 g
same,Cumulative mean ± SD kaolin consumption,"[2]; 47 mg base/kg po (galantamine free base content), 96 h",0.91 ± 0.45 g
same,Cumulative mean ± SD kaolin consumption,"[2]; 47 mg base/kg po (galantamine free base content), 96 h, listed as GSVE",0.91 ± 0.45 g
same,inhibitory actions toward human acetylcholine esterase (in words),[1],significantly less inhibitory actions
same,stimulation of smooth muscle contractions (change in force production),[3],complete absence of any such effect
same,stimulation of smooth muscle contractions (change in force production),[4],complete absence of any such effect
same,Time (min) to onset of: Retching,"[5]; 40 mg/kg as base p.o., Mean",>120 min
same,Time (min) to onset of: Vomiting,"[5]; 40 mg/kg as base p.o., Mean",>120 min
same,Total number of individual incidences of: Retching,"[5]; 40 mg/kg as base p.o., Mean",0
same,Total number of individual incidences of: Vomiting,"[5]; 40 mg/kg as base p.o., Mean",0
same,Time (min) to onset of: Retching,[5]; [7],>120 min
same,Time (min) to onset of: Vomiting,[5]; [7],>120 min
same,Total number of individual incidences of: Retching,[5]; [7],0
same,Total number of individual incidences of: Vomiting,[5]; [7],0
same,retching or vomiting observed (in words),[5]; oral 40 mg galantamine (free base equivs)/kg,no retching or vomiting at all
"COc1ccc2c3c1O[C@H]1C[C@@H](O)C=C[C@@]31CCN(C)C2 [Galantamine, (4aS,6R,8aS)-4a,5,9,10,11,12-hexahydro-3-methoxy-11-methyl-6H-benzofuro[3a,3,2ef][2]benzazepin-6-ol hydrobromide]",rat behavior,"[6]; 3.5 mg/kg sc, 2 min post dose, hydrobromide","Rat 1: purposeless chewing, mouth; also recorded: Rat 3: purposeless chewing, mouth"
same,rat behavior,"[6]; 3.5 mg/kg sc, 5 min post-dose, hydrobromide","Rat 3: As per 2 min; also recorded: Rat 1: purposeless chewing, mouth"
same,rat behavior,"[6]; 3.5 mg/kg sc, 10 min post-dose, hydrobromide","Rat 1: Tremors, flattened rostral body; also recorded: Rat 3: purposeless chewing, mouth"
same,rat behavior,"[6]; 3.5 mg/kg sc, 20 min post-dose, hydrobromide","Rat 1: Quiescent, flattened body posture,; also recorded: Rat 3: Some ambulation restored"
same,rat behavior,"[6]; 3.5 mg/kg sc, 30 min post-dose, hydrobromide","Rat 1: Quiescent, flattened body posture,; also recorded: Rat 3: Some ambulation restored"
same,rat behavior,"[6]; 3.5 mg/kg sc, 45 min post-dose",Rat 1: food consumption and more
same,rat behavior,"[6]; 3.5 mg/kg sc, 1 h, hydrobromide",Rat 1: Normal; also recorded: Rat 3: Normal
same,rat behavior,"[6]; 40 mg/kg po, 10 min post-dose, hydrobromide","Rat 6: Quiescent, purposeless; also recorded: Rat 7: Quiescent, purposeless chewing,"
same,rat behavior,"[6]; 40 mg/kg po, 20 min post-dose, hydrobromide",Ratc 6 as per 10 min + arching; also recorded: Rat 7: grooming + purposeless
same,rat behavior,"[6]; 40 mg/kg po, 30 min post-dose","Rat 6: quiescent, purposeless chewing,"
same,rat behavior,"[6]; 40 mg/kg po, 45 min post-dose, hydrobromide","Rat 6: flattened body posture, chewing,; also recorded: Rat 7: grooming, sawdust consumption"
same,rat behavior,"[6]; 40 mg/kg po, 1 h, hydrobromide","Rat 6: flattened body posture, tremor; also recorded: Rat 7: Grooming, sawdust"
same,rat behavior,"[6]; 40 mg/kg po, 1.5 h, hydrobromide","Rat 7: quiet, falttened posture"
same,rat behavior,"[6]; 40 mg/kg po, 2 h, hydrobromide",Rat 6: much improved; also recorded: Rat 7: much improved
same,rat behavior,"[6]; 40 mg/kg po, 3 h, hydrobromide",Rat 6: normal; also recorded: Rat 7: normal
same,rat kaolin consumption (g) over 24 h post-dose,[2]; Mean,0.25 g
same,rat kaolin consumption (g) over 24 h post-dose,"[2]; individual rats, hydrobromide",0.67 g and 0.36 g and 0.88 g and 0.08 g and 0.00 g (3×) and 0.21 g and 0.05 g
same,stimulation of smooth muscle contractions (change in force production),[3],evidence of a dose response
same,stimulation of smooth muscle contractions (change in force production),[4],evidence of a dose response
same,animals dosed that retched,[5],55%
same,animals dosed that vomited,[5],40%
same,Time (min) to onset of: Retching,[5]; [8],6 min (2×) and 33 min and 3 min and 5 min (3×) and >120 min (8×) and 41 min and 11 min and 10 min and 7 min (2×)
same,Time (min) to onset of: Vomiting,[5]; [8],41 min and 33 min and 75 min and 5 min (2×) and >120 min (11×) and 37 min and 10 min and 13 min and 6 min
same,Total number of individual incidences of: Retching,[5]; [8],22 and 21 and 29 and 18 and 0 (9×) and 31 and 3 (2×) and 6 and 2 and 5 and 13
same,Total number of individual incidences of: Vomiting,[5]; [8],1 (6×) and 4 (2×) and 0 (11×) and 2
"COc1ccc2c3c1O[C@H]1C[C@@H](OC(=O)[C@@H](N)C(C)C)C=C[C@@]31CCN(C)C2 [Galantamine-(S)-valine ester, galantamine-(S)-valine ester tartrate]",animals dosed that retched,[5],45%
same,animals dosed that vomited,[5],18%
same,Total number of individual incidences of: Retching,"[5]; 20 mg/kg p.o., Mean",3.9
same,Time (min) to onset of: Retching,[5]; [9],>120 min (6×) and 35 min and 11 min and 9 min and 6 min
same,Time (min) to onset of: Vomiting,[5]; [9],>120 min (9×) and 44 min and 9 min
same,Total number of individual incidences of: Retching,[5]; [9],0 (6×) and 22 and 2 (2×) and 3 and 14
same,Total number of individual incidences of: Vomiting,[5]; [9],0 (9×) and 1 and 3
